In US20250215029A1 (Recludix Pharma, Inc., priority 2022, published 2025):
pIC50: −log10 of the molar value.

How the values were obtained:
[1] = target: T1, Recombinant STAT3 protein (STAT3 (G127-I722)) (Homo sapiens, UniProt P40763); assay: STAT3 Fluorescence Polarization (FP) Assay; type: binding; conditions: STAT3 (G127-I722) 25 nM, probe 5-FAM-GpYLPQTV-NH2 2 nM, 45-minute incubation; read-out: STAT3 (FP assay IC50 class)
T1 construct: Recombinant STAT3 protein (STAT3 (G127-I722))
Procedure, shortened: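 Read-out is fluorescence polarization (mP) after 45 min at room temperature, with IC50 fitted by nonlinear regression against log compound concentration. Mixture: 25 nM STAT3 (G127-I722), 2 nM 5-FAM-GpYLPQTV-NH2 phosphopeptide, 10 mM HEPES pH 7.4 buffer, 1% DMSO.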

[2] = target: T2, Recombinant STAT6 protein (STAT6 (W123-T658)) (Homo sapiens, UniProt P42226); assay: STAT6 Fluorescence Polarization (FP) Assay; type: binding; conditions: STAT6 (W123-T658) 250 nM, probe 5-FAM-Ap[…]-NH2 2 nM, 45-minute incubation; read-out: STAT6 (FP assay IC50 class)
T2 construct: Recombinant STAT6 protein (STAT6 (W123-T658))
T2 sequence (P42226 123-658): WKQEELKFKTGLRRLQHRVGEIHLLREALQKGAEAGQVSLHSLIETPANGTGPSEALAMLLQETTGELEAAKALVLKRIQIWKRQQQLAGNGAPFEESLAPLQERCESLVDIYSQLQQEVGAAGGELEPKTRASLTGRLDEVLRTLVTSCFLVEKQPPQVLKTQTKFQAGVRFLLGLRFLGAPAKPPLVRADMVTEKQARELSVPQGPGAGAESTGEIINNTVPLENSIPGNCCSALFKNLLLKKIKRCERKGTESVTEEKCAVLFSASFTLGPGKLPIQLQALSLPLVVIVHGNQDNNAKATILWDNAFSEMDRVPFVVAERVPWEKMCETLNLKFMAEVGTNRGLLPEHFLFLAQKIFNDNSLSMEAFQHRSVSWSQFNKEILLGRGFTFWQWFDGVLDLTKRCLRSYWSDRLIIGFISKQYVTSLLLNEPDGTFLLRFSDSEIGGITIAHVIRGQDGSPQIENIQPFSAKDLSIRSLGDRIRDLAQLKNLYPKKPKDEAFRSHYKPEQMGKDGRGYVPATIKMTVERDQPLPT
Procedure, shortened: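 Competitive FP binding: recombinant STAT6 (W123-T658) at 250 nM, labeled phosphotyrosine peptide at 2 nM, compounds at 1% DMSO, 45 min at RT before reading. IC50 values were obtained from nonlinear regression of mP versus log concentration.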

T1 sequence (P40763 127-722): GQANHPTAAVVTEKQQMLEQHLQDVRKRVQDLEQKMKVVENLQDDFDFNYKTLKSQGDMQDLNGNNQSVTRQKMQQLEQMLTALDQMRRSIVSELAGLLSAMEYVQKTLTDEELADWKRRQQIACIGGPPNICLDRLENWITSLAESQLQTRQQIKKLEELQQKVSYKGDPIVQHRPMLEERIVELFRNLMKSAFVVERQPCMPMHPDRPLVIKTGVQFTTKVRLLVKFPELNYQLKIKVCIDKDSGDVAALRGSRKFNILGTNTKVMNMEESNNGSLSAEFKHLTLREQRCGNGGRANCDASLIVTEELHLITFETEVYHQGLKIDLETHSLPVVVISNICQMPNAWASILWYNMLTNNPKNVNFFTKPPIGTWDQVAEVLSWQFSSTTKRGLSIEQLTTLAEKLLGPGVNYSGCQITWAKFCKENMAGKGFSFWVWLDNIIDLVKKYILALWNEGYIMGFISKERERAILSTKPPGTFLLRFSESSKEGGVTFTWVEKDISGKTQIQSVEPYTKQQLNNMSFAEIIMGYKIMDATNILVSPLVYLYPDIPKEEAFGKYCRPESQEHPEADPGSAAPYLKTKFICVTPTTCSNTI

| pIC50 [1] | pIC50 [2] | SMILES |
| --- | --- | --- |
| > 7.00 | 4.52 to 5.52 | O=C(N[C@H]1CCC[C@H]2CC[C@@H](C(=O)N3CC(c4cnccc4Oc4ccccc4)C3)N2C1=O)c1cc2cc(C(F)P(=O)(O)O)ccc2s1 (stereo partly drawn) [Compound 699, (fluoro(2-(((3S,6S,9aS)-5-oxo-3-(3-(4-phenoxypyridin-3-yl)azetidine-1-carbonyl)octahydro-1H-pyrrolo[1,2-a]azepin-6-yl)carbamoyl)benzo [b]thiophen-5-yl)methyl) phosphonic acid] |
| > 7.00 | 5.52 to 6.52 | COc1ccncc1[C@@H]1CCN(C(=O)[C@@H]2CC[C@@H]3CCC[C@H](NC(=O)c4cc5cc(C(F)P(=O)(O)O)ccc5s4)C(=O)N32)C1 (stereo partly drawn) [Compound 706, (fluoro(2-(((3S,6S,9aS)-3-((S)-3-(4-methoxypyridin-3-yl)pyrrolidine-1-carbonyl)-5-oxooctahydro-1H-pyrrolo[1,2-a]azepin-6-yl)carbamoyl)benzo [b]thiophen-5-yl)methyl) phosphonic acid] |
| > 7.00 | 5.52 to 6.52 | COc1ccncc1[C@H]1CCN(C(=O)[C@@H]2CC[C@@H]3CCC[C@H](NC(=O)c4cc5cc(C(F)P(=O)(O)O)ccc5s4)C(=O)N32)C1 (stereo partly drawn) [Compound 707, (fluoro(2-(((3S,6S,9aS)-3-((R)-3-(4-methoxypyridin-3-yl)pyrrolidine-1-carbonyl)-5-oxooctahydro-1H-pyrrolo[1,2-a]azepin-6-yl)carbamoyl)benzo [b]thiophen-5-yl)methyl) phosphonic acid] |
| 6.00 to 7.00 | 4.52 to 5.52 | Cn1cc(C2CN(C(=O)[C@@H]3CC[C@@H]4CCC[C@H](NC(=O)c5cc6cc(C(F)P(=O)(O)O)ccc6s5)C(=O)N43)C2)c(F)n1 (stereo partly drawn) [Compound 715, (fluoro(2-(((3S,6S,9aS)-3-(3-(3-fluoro-1-methyl-1H-pyrazol-4-yl)azetidine-1-carbonyl)-5-oxooctahydro-1H-pyrrolo[1,2-a]azepin-6-yl)carbamoyl)benzo [b]thiophen-5-yl)methyl) phosphonic acid] |
| > 7.00 | 4.52 to 5.52 | O=C(N[C@H]1CCC[C@H]2CC[C@@H](C(=O)N3CC(c4cncc(Cl)c4F)C3)N2C1=O)c1cc2cc(C(F)P(=O)(O)O)ccc2s1 (stereo partly drawn) [Compound 717, ((2-(((3S,6S,9aS)-3-(3-(5-chloro-4-fluoropyridin-3-yl)azetidine-1-carbonyl)-5-oxooctahydro-1H-pyrrolo[1,2-a]azepin-6-yl)carbamoyl)benzo [b]thiophen-5-yl)fluoromethyl) phosphonic acid] |
| 5.00 to 6.00 | 4.52 to 5.52 | O=C(N[C@H]1CCC[C@H]2CC[C@@H](C(=O)N3CC(c4cccnc4)C3)N2C1=O)c1cc2cc(CP(=O)(O)O)ccc2[nH]1 [Compound 720, ((2-(((3S,6S,9aS)-5-oxo-3-(3-(pyridin-3-yl)azetidine-1-carbonyl)octahydro-1H-pyrrolo[1,2-a]azepin-6-yl)carbamoyl)-1H-indol-5-yl)methyl) phosphonic acid] |
| 6.00 to 7.00 | 4.52 to 5.52 | COC1(c2cncnc2C)CN(C(=O)[C@@H]2CC[C@@H]3CCC[C@H](NC(=O)c4cc5cc(C(F)(F)P(=O)(O)O)ccc5s4)C(=O)N32)C1 [Compound 721, (difluoro(2-(((3S,6S,9aS)-3-(3-methoxy-3-(4-methylpyrimidin-5-yl)azetidine-1-carbonyl)-5-oxooctahydro-1H-pyrrolo[1,2-a]azepin-6-yl)carbamoyl)benzo [b]thiophen-5-yl)methyl) phosphonic acid] |
| 6.00 to 7.00 | 4.52 to 5.52 | COC1(c2cnccc2C)CN(C(=O)[C@@H]2CC[C@@H]3CCC[C@H](NC(=O)c4cc5cc(C(F)(F)P(=O)(O)O)ccc5s4)C(=O)N32)C1 [Compound 722, (difluoro(2-(((3S,6S,9aS)-3-(3-methoxy-3-(4-methylpyridin-3-yl)azetidine-1-carbonyl)-5-oxooctahydro-1H-pyrrolo[1,2-a]azepin-6-yl)carbamoyl)benzo [b]thiophen-5-yl)methyl) phosphonic acid] |
| 6.00 to 7.00 | 4.52 to 5.52 | COC1(c2cncnc2)CN(C(=O)[C@@H]2CC[C@@H]3CCC[C@H](NC(=O)c4cc5cc(C(F)(F)P(=O)(O)O)ccc5s4)C(=O)N32)C1 [Compound 723, (difluoro(2-(((3S,6S,9aS)-3-(3-methoxy-3-(pyrimidin-5-yl)azetidine-1-carbonyl)-5-oxooctahydro-1H-pyrrolo[1,2-a]azepin-6-yl)carbamoyl)benzo [b]thiophen-5-yl)methyl) phosphonic acid] |

Second part, the compound before the results:

| SMILES | pIC50 [1] | pIC50 [2] |
| --- | --- | --- |
| O=C(N[C@H]1CCC[C@H]2CC[C@@H](C(=O)N3CC(c4cnccc4OC4CCCC4)C3)N2C1=O)c1cc2cc(C(F)P(=O)(O)O)ccc2s1 (stereo partly drawn) [Compound 695, ((2-(((3S,6S,9aS)-3-(3-(4-(cyclopentyloxy)pyridin-3-yl)azetidine-1-carbonyl)-5-oxooctahydro-1H-pyrrolo[1,2-a]azepin-6-yl)carbamoyl)benzo [b]thiophen-5-yl)fluoromethyl) phosphonic acid] | > 7.00 | 4.52 to 5.52 |
| O=C(N[C@H]1CCC[C@H]2CC[C@@H](C(=O)N3CC(C4=CCOCC4)C3)N2C1=O)c1cc2cc(CP(=O)(O)O)ccc2s1 [Compound 697, ((2-(((3S,6S,9aS)-3-(3-(3,6-dihydro-2H-pyran-4-yl)azetidine-1-carbonyl)-5-oxooctahydro-1H-pyrrolo[1,2-a]azepin-6-yl)carbamoyl)benzo [b]thiophen-5-yl)methyl) phosphonic acid] | 5.00 to 6.00 | 4.52 to 5.52 |
| O=C(N[C@H]1CCC[C@H]2CC[C@@H](C(=O)N3CC(c4cnccc4N4CC5(COC5)C4)C3)N2C1=O)c1cc2cc(CP(=O)(O)O)ccc2s1 [Compound 704, ((2-(((3S,6S,9aS)-3-(3-(4-(2-oxa-6-azaspiro[3.3]heptan-6-yl)pyridin-3-yl)azetidine-1-carbonyl)-5-oxooctahydro-1H-pyrrolo[1,2-a]azepin-6-yl)carbamoyl)benzo [b]thiophen-5-yl)methyl) phosphonic acid] | > 7.00 | 4.52 to 5.52 |
| O=C(N[C@H]1CCC[C@H]2CC[C@@H](C(=O)N3CC(c4cnccc4OCc4ccncc4)C3)N2C1=O)c1cc2cc(C(F)P(=O)(O)O)ccc2s1 (stereo partly drawn) [Compound 705, (fluoro(2-(((3S,6S,9aS)-5-oxo-3-(3-(4-(pyridin-4-ylmethoxy)pyridin-3-yl)azetidine-1-carbonyl)octahydro-1H-pyrrolo[1,2-a]azepin-6-yl)carbamoyl)benzo [b]thiophen-5-yl)methyl) phosphonic acid] | > 7.00 | 4.52 to 5.52 |
| COc1nn(C)cc1C1CN(C(=O)[C@@H]2CC[C@@H]3CCC[C@H](NC(=O)c4cc5cc(C(F)P(=O)(O)O)ccc5s4)C(=O)N32)C1 (stereo partly drawn) [Compound 714, (fluoro(2-(((3S,6S,9aS)-3-(3-(3-methoxy-1-methyl-1H-pyrazol-4-yl)azetidine-1-carbonyl)-5-oxooctahydro-1H-pyrrolo[1,2-a]azepin-6-yl)carbamoyl)benzo [b]thiophen-5-yl)methyl) phosphonic acid] | 6.00 to 7.00 | 4.52 to 5.52 |
| Cn1cc(C2CN(C(=O)[C@@H]3CC[C@@H]4CCC[C@H](NC(=O)c5cc6cc(C(F)P(=O)(O)O)ccc6s5)C(=O)N43)C2)cn1 (stereo partly drawn) [Compound 716, (fluoro(2-(((3S,6S,9aS)-3-(3-(1-methyl-1H-pyrazol-4-yl)azetidine-1-carbonyl)-5-oxooctahydro-1H-pyrrolo[1,2-a]azepin-6-yl)carbamoyl)benzo [b]thiophen-5-yl)methyl) phosphonic acid] | 5.00 to 6.00 | 4.52 to 5.52 |
| O=C(N[C@H]1CCCC[C@H]2CC[C@@H](C(=O)N3CC(Cc4ccccn4)C3)N2C1=O)c1cc2cc(C(F)(F)P(=O)(O)O)ccc2s1 [Compound 718, (difluoro(2-(((3S,6S,10aS)-5-oxo-3-(3-(pyridin-2-ylmethyl)azetidine-1-carbonyl)decahydropyrrolo[1,2-a]azocin-6-yl)carbamoyl)benzo [b]thiophen-5-yl)methyl) phosphonic acid] | > 7.00 | 5.52 to 6.52 |
| CS(=N)(=O)c1cnc(C2CN(C(=O)[C@@H]3CC[C@@H]4CCCC[C@H](NC(=O)c5cc6cc(C(F)(F)P(=O)(O)O)ccc6s5)C(=O)N43)C2)nc1 (stereo partly drawn) [Compound 719, (difluoro(2-(((3S,6S,10aS)-3-(3-(5-(S-methylsulfonimidoyl)pyrimidin-2-yl)azetidine-1-carbonyl)-5-oxodecahydropyrrolo [1,2-a]azocin-6-yl)carbamoyl)benzo [b]thiophen-5-yl)methyl) phosphonic acid] | 6.00 to 7.00 | 4.52 to 5.52 |
